These results are taken from publication PMC6017068, “Cloning and Functional Characterization of Two 4-Coumarate: CoA Ligase Genes from Selaginella moellendorffii” (Molecules : A Journal of Synthetic Chemistry and Natural …, 2018).

Common to all, as to type: biochemical
Common to all, as to settings: ATP, MgCl2, 200 mM Tris-HCl, optimal pH about 7.0, optimal temperature 50 °C

For test [1], the target named is T1, Sm4CL2 (Selaginella moellendorffii, UniProt D8S6A2).
T1 construct: gene 4CL2-1; 75-79 kDa with tags (tags kept)
Briefly: UV absorption at […] nm, CoA ester formation.

In test [2] the target is T1, Sm4CL2. Briefly: UV absorption at […] nm, CoA ester formation. This is another data set of the same source.
For test [3], the target named is T1, Sm4CL2. The experiment in a line: HPLC quantification of CoA ester after […] min.
The target of test [4] is T1, Sm4CL2. Briefly: UV absorption at […] nm, CoA ester formation. This is another data set of the same source.

T1 sequence (D8S6A2 entry or part of it): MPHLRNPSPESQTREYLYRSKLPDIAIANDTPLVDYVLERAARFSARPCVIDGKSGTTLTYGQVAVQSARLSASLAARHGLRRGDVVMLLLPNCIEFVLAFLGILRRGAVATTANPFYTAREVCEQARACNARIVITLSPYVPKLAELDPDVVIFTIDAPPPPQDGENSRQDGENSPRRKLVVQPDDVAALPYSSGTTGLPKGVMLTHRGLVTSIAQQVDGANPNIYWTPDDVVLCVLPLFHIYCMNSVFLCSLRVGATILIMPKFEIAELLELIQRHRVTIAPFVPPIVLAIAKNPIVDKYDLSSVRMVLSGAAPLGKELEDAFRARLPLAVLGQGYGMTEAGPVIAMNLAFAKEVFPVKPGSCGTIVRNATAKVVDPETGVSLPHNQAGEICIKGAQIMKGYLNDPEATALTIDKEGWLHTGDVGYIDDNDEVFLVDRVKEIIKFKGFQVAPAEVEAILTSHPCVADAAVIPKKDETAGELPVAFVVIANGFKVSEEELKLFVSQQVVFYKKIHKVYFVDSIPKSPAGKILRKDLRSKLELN

Take `O=C(O)/C=C/c1ccc(O)c(O)c1` [caffeic acid]: the Michaelis-Menten constant (Km) (in general, the concentration of substrate that gives half-maximal velocity) at Sm4CL2 [1] turned out to be 19 ± 2.61 µM.

As for `O=C(O)/C=C/c1ccccc1` [cinnamic acid], on Sm4CL2 [2], the Michaelis constant (Km) came out at 127 ± 11.6 µM.

Consider `O=C(O)CCc1ccc(O)cc1` [dihydro-p-coumaric acid], for which the Michaelis-Menten constant (Km) at Sm4CL2 [3] was 220 ± 36.9 µM.

As to `COc1cc(/C=C/C(=O)O)ccc1O` [ferulic acid], on Sm4CL2 [1], the Km was 96 ± 13.4 µM.

Regarding `O=C(O)/C=C/c1ccc(O)cc1` [p-coumaric acid], the Km on Sm4CL2 [4] came to 19.7 ± 2.92 µM.
